According to US11802120B2, “Fused cyclic urea derivatives as CRHR2 antagonist” (RaQualia Pharma Inc., priority 2018, dated 2023):

Target: T1, human CRHR2-alpha (Homo sapiens, UniProt Q13324)
T1 sequence (Q13324 1-411): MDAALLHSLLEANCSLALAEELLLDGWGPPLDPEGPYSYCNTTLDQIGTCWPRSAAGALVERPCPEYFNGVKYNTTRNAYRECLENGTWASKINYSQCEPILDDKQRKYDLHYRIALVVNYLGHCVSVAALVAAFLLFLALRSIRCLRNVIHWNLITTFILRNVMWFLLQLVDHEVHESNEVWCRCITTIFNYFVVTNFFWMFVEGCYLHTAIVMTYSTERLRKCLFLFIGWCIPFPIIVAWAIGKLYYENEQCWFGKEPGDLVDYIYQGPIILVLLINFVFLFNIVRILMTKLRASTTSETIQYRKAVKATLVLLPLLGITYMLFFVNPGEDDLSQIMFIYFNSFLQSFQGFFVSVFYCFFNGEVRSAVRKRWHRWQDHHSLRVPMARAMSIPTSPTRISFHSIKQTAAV
Test: cAMP functional assay for human CRHR2 (LANCE Ultra cAMP, TR-FRET)
Format: cell-based
Conditions: CHO-K1 cells expressing human CRHR2-alpha, agonist human urocortin2 at EC80, cAMP; read-out: IC50 against CRHR2
Procedure, shortened: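 Antagonism measured in CHO-K1 cells stably expressing the receptor, serum-starved 7 h then cryopreserved. Thawed cells in HBSS buffer with 0.1% BSA, 0.5 mM IBMX, 5 mM Hepes pH 7.4 were preincubated with compound 30 min at 25° C, then stimulated 30 min with EC80 agonist: urocortin2 for CRHR2, CRF for CRHR1.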

Structure (SMILES) | IC50 [nM]
CNc1ccc(-n2c(=O)n(C[C@H]3CC[C@H](NC(=O)c4cc(Cl)cnc4C(F)(F)F)CC3)c3ccccc32)nc1 [Example 692, 5-chloro-N-((1r,4r)-4-((3-(5-(methylamino)pyridin-2-yl)-2-oxo-2,3-dihydro-1H-benzo[d]imidazol-1-yl)methyl)cyclohexyl)-2-(trifluoromethyl)nicotinamide] | < 300
COc1ccc(Cl)c(-n2c(=O)n(C[C@H]3CC[C@H](NC(=O)c4cc(Cl)cnc4C(F)F)CC3)c3ccncc32)c1 [Example 693, 5-chloro-N-((1r,4r)-4-((3-(2-chloro-5-methoxyphenyl)-2-oxo-2,3-dihydro-1H-imidazo [4,5-c]pyridin-1-yl)methyl)cyclohexyl)-2-(difluoromethyl) nicotinamide] | < 300
Cc1ncc(Cl)cc1C(=O)N[C@H]1CC[C@H](Cn2c(=O)n(-c3ccc(-c4ncc[nH]4)nc3)c3ccccc32)CC1 [Example 695, N-((1r,4r)-4-((3-(6-(1H-imidazol-2-yl)pyridin-3-yl)-2-oxo-2,3-dihydro-1H-benzo[d]imidazol-1-yl)methyl)cyclohexyl)-5-chloro-2-methylnicotinamide] | < 300
Cc1ncc(Cl)cc1C(=O)N[C@H]1CC[C@H](Cn2c(=O)n(-c3cccc(-c4cn[nH]c4)c3)c3ccccc32)CC1 [Example 696, N-((1r,4r)-4-((3-(3-(1H-pyrazol-4-yl)phenyl)-2-oxo-2,3-dihydro-1H-benzo[d]imidazol-1-yl)methyl)cyclohexyl)-5-chloro-2-methylnicotinamide] | < 300
O=C(N[C@H]1CC[C@H](Cn2c(=O)n(-c3cccc(-c4cn[nH]c4)c3)c3ccccc32)CC1)c1cc(Cl)cnc1C(F)F [Example 697, N-((1r,4r)-4-((3-(3-(1H-pyrazol-4-yl)phenyl)-2-oxo-2,3-dihydro-1H-benzo[d]imidazol-1-yl)methyl)cyclohexyl)-5-chloro-2-(difluoromethyl)nicotinamide] | < 300
Cn1cc(-c2cc(-n3c(=O)n(C[C@H]4CC[C@H](NC(=O)c5cc(Cl)cnc5C(F)F)CC4)c4ccccc43)ccn2)cn1 [Example 699, 5-chloro-2-(difluoromethyl)-N-((1r,4r)-4-((3-(2-(1-methyl-1H-pyrazol-4-yl)pyridin-4-yl)-2-oxo-2,3-dihydro-1H-benzo [d]imidazol-1-yl)methyl)cyclo-hexyl)nicotinamide] | < 300
Cn1ccc(-c2cccc(-n3c(=O)n(C[C@H]4CC[C@H](NC(=O)c5cc(Cl)cnc5C(F)F)CC4)c4ccccc43)c2)n1 [Example 700, 5-chloro-2-(difluoromethyl)-N-((1r,4r)-4-((3-(3-(1-methyl-1H-pyrazol-3-yl)phenyl)-2-oxo-2,3-dihydro-1H-benzo[d]imidazol-1-yl)methyl)cyclohexyl) nicotinamide] | < 300
Cn1ccc(-c2cncc(-n3c(=O)n(C[C@H]4CC[C@H](NC(=O)c5cc(Cl)cnc5C(F)F)CC4)c4ccccc43)c2)n1 [Example 701, 5-chloro-2-(difluoromethyl)-N-((1r,4r)-4-((3-(5-(1-methyl-1H-pyrazol-3-yl)pyridin-3-yl)-2-oxo-2,3-dihydro-1H-benzo [d]imidazol-1-yl)methyl)cyclo-hexyl)nicotinamide] | < 300
Cn1ccc(-c2cc(-n3c(=O)n(C[C@H]4CC[C@H](NC(=O)c5cc(Cl)cnc5C(F)F)CC4)c4ccccc43)ccn2)n1 [Example 702, 5-chloro-2-(difluoromethyl)-N-((1r,4r)-4-((3-(2-(1-methyl-1H-pyrazol-3-yl)pyridin-4-yl)-2-oxo-2,3-dihydro-1H-benzo[d]imidazol-1-yl)methyl)cyclohexyl)nicotinamide] | < 300
O=C(N[C@H]1CC[C@H](Cn2c(=O)n(-c3cncc(-n4cccn4)c3)c3ccccc32)CC1)c1cc(Cl)cnc1C(F)F [Example 703, N-((1r,4r)-4-((3-(5-(1H-pyrazol-1-yl)pyridin-3-yl)-2-oxo-2,3-dihydro-1H-benzo [d]imidazol-1-yl)methyl)cyclohexyl)-5-chloro-2-(difluoromethyl)nicotinamide] | < 300
CNc1ccc(-n2c(=O)n(C[C@H]3CC[C@H](NC(=O)c4cc(Cl)cnc4C(F)(F)F)CC3)c3cc(F)ccc32)cn1 [Example 704, 5-chloro-N-((1r,4r)-4-((6-fluoro-3-(6-(methylamino)pyridin-3-yl)-2-oxo-2,3-dihydro-1H-benzo[d]imidazol-1-yl)methyl)cyclo-hexyl)-2-(trifluoromethyl) nicotinamide] | < 300
CNc1ccc(-n2c(=O)n(C[C@H]3CC[C@H](NC(=O)c4cc(Cl)cnc4C(F)(F)F)CC3)c3ccc(F)cc32)cn1 [Example 705, 5-chloro-N-((1r,4r)-4-((5-fluoro-3-(6-(methylamino)pyridin-3-yl)-2-oxo-2,3-dihydro-1H-benzo[d]imidazol-1-yl)methyl)cyclo-hexyl)-2-(trifluoromethyl) nicotinamide] | < 300
O=C(N[C@H]1CC[C@H](Cn2c(=O)n(-c3ccnc(N4CCCC4=O)c3)c3ccccc32)CC1)c1cc(Cl)cnc1C(F)F [Example 706, 5-chloro-2-(difluoromethyl)-N-((1r,4r)-4-((2-oxo-3-(2-(2-oxopyrrolidin-1-yl)pyridin-4-yl)-2,3-dihydro-1H-benzo[d]imidazol-1-yl)methyl)cyclo-hexyl)nicotinamide] | < 300
CN1CCN(c2cc(-n3c(=O)n(C[C@H]4CC[C@H](NC(=O)c5cc(Cl)cnc5C(F)F)CC4)c4ccccc43)ccn2)C1=O [Example 707, 5-chloro-2-(difluoromethyl)-N-((1r,4r)-4-((3-(2-(3-methyl-2-oxoimidazolidin-1-yl)pyridin-4-yl)-2-oxo-2,3-dihydro-1H-benzo[d]imidazol-1-yl)methyl)cyclohexyl) nicotinamide] | < 300
Cc1cc2cc(-n3c(=O)n(C[C@H]4CC[C@H](NC(=O)c5cc(Cl)cnc5C(F)F)CC4)c4cccnc43)cnc2n1C [Example 708, 5-chloro-2-(difluoromethyl)-N-((1r,4r)-4-((3-(1,2-dimethyl-1H-pyrrolo[2,3-b]pyridin-5-yl)-2-oxo-2,3-dihydro-1H-imidazo[4,5-b]pyridin-1-yl)methyl)cyclohexyl)nicotinamide] | < 300
O=C(N[C@H]1CC[C@H](Cn2c(=O)n(-c3cnc4[nH]c(CO)cc4c3)c3ccccc32)CC1)c1cc(Cl)cnc1C(F)F [Example 709, 5-chloro-2-(difluoromethyl)-N-((1r,4r)-4-((3-(2-(hydroxymethyl)-1H-pyrrolo[2,3-b]pyridin-5-yl)-2-oxo-2,3-dihydro-1H-benzo[d]imidazol-1-yl)methyl)cyclohexyl)nicotinamide] | < 300
COc1ccc(-n2c(=O)n(C[C@H]3CC[C@H](NC(=O)c4cc(Cl)cnc4C(F)F)CC3)c3cccnc32)cc1F [Example 710, 5-chloro-2-(difluoromethyl)-N-((1r,4r)-4-((3-(3-fluoro-4-methoxyphenyl)-2-oxo-2,3-dihydro-1H-imidazo[4,5-b]pyridin-1-yl)methyl)cyclo-hexyl)nicotinamide] | < 300
O=C(N[C@H]1CC[C@H](Cn2c(=O)n(-c3ccc(OCCO)nc3)c3ccc(F)cc32)CC1)c1cc(Cl)cnc1C(F)F [Example 712, 5-chloro-2-(difluoromethyl)-N-((1r,4r)-4-((6-fluoro-3-(6-(2-hydroxyethoxy)pyridin-3-yl)-2-oxo-2,3-dihydro-1H-benzo[d]imidazol-1-yl)methyl)cyclohexyl)nicotinamide] | < 300
O=C(N[C@H]1CC[C@H](Cn2c(=O)n(-c3ccc(NCCO)nc3)c3ccc(F)cc32)CC1)c1cc(Cl)cnc1C(F)F [Example 713, 5-chloro-2-(difluoromethyl)-N-((1r,4r)-4-((6-fluoro-3-(6-((2-hydroxyethyl)amino)pyridin-3-yl)-2-oxo-2,3-di-hydro-1H-benzo[d]imidazol-1-yl)methyl)cyclohexyl) nicotinamide] | < 300
O=C(N[C@H]1CC[C@H](Cn2c(=O)n(-c3ccc(NCCO)cn3)c3ccccc32)CC1)c1cc(Cl)cnc1C(F)F [Example 715, 5-chloro-2-(difluoromethyl)-N-((1r,4r)-4-((3-(5-((2-hydroxyethyl)amino)pyridin-2-yl)-2-oxo-2,3-dihydro-1H-benzo[d]imidazol-1-yl)methyl)cyclohexyl)nicotinamide] | < 300
O=C(N[C@H]1CC[C@H](Cn2c(=O)n(-c3ccc(N4CCNC4=O)cn3)c3ccccc32)CC1)c1cc(Cl)cnc1C(F)F [Example 717, 5-chloro-2-(difluoromethyl)-N-((1r,4r)-4-((2-oxo-3-(5-(2-oxoimidazolidin-1-yl)pyridin-2-yl)-2,3-dihydro-1H-benzo [d]imidazol-1-yl)methyl)cyclo-hexyl)nicotinamide] | < 300
O=C(N[C@H]1CC[C@H](Cn2c(=O)n(-c3cc(F)ccc3Cl)c3cnccc32)CC1)c1cc(Cl)cnc1C(F)F [Example 718, 5-chloro-N-((1r,4r)-4-((3-(2-chloro-5-fluorophenyl)-2-oxo-2,3-dihydro-1H-imidazo[4,5-c]pyridin-1-yl)methyl)cyclo-hexyl)-2-(difluoromethyl) nicotinamide] | < 300
COc1ccc(F)c(-n2c(=O)n(C[C@H]3CC[C@H](NC(=O)c4cc(Cl)cnc4C(F)F)CC3)c3ncccc32)c1 [Example 720, 5-chloro-2-(difluoromethyl)-N-((1r,4r)-4-((1-(2-fluoro-5-methoxyphenyl)-2-oxo-1H-imidazo[4,5-b]pyridin-3(2H)-yl)methyl)cyclohexyl) nicotinamide] | < 300
